These results are taken from patent US6979560B1, “Eschericha bacteria overexpressing the yahn gene for feedback-insensitive amino acid production” (priority 1998, dated 2005).

What all share (format): cell-based
One assay relates to E. coli TG1/pUC21. Description: MIC of amino acids and analogues on M9 agar, control strain TG1/pUC21. The conditions noted are these: for MIC: Escherichia coli. As for the experimental part:
(§1) Therefore, the effect of the pYEAS, pYAHN, PYFIK, and pYGGA plasmids on susceptibility of the strain TG1 to some amino acids and amino acid analogues was tested. Overnight cultures of the E. coli strains TG1/pYEAS, TG1/pYAHN, TG1/pYFIK, TG1/pYGGA and of the control strains TG1/pUC21, TG1/pUC19 and TG1/pOK12 grown in M9 minimal medium with an appropriate antibiotic on a rotary shaker (10^9 cfu/ml) were diluted 1:100 in M9 minimal medium and grown for 5 h in the same medium. Then the log phase cultures thus obtained were diluted and about 10^4 alive cells were applied to well-dried test plates with M9 agar containing doubling increments of amino acids or analogues. Thus the minimum inhibition concentration (MIC) of these compounds were examined.

The subject of another assay is E. coli TG1/pYAHN. Put plainly: microbe, parasite or virus in culture. The conditions noted are these: for MIC: Escherichia coli, TG1/PYAHN, read-out: MIC (μg/ml) for E. coli TG1, harboring the plasmid pYAHN.
Text: as §1, with “The homology of the yeaS, yfiK, yahN and yggA gene products with the lysine transporter, LysE, of Corynebacterium glutamicum (Vrljic et al., Mol. Microbiol.,22, 815-826, 1996) and RhtB protein involved in homoserine excretion, indicates the analogues function for these proteins. It is well known that the increased expression of the genes involved in antibiotic and heavy metal efflux increases the level of resistance to the drugs (Nikaido, H. J. Bacteriology, 178, 5853-5859, 1996). Therefore,” for “Therefore,”

For the next assay, the system named is E. coli TG1/pYFIK. Put plainly: microbe, parasite or virus in culture. The conditions noted are these: for MIC: Escherichia coli, TG1/PYFIK, read-out: MIC (μg/ml) for E. coli TG1, harboring the plasmid pYFIK.
Text: as §1, with “The homology of the yeaS, yfiK, yahN and yggA gene products with the lysine transporter, LysE, of Corynebacterium glutamicum (Vrljic et al., Mol. Microbiol.,22, 815-826, 1996) and RhtB protein involved in homoserine excretion, indicates the analogues function for these proteins. It is well known that the increased expression of the genes involved in antibiotic and heavy metal efflux increases the level of resistance to the drugs (Nikaido, H. J. Bacteriology, 178, 5853-5859, 1996). Therefore,” for “Therefore,”

The next assay deals with E. coli TG1/pYGGA. Description: microbe, parasite or virus in culture. The conditions noted are these: for MIC: Escherichia coli, TG1/PYGGA, read-out: MIC (μg/ml) for E. coli TG1, harboring the plasmid pYGGA.
Text: as §1, with “The homology of the yeaS, yfiK, yahN and yggA gene products with the lysine transporter, LysE, of Corynebacterium glutamicum (Vrljic et al., Mol. Microbiol.,22, 815-826, 1996) and RhtB protein involved in homoserine excretion, indicates the analogues function for these proteins. It is well known that the increased expression of the genes involved in antibiotic and heavy metal efflux increases the level of resistance to the drugs (Nikaido, H. J. Bacteriology, 178, 5853-5859, 1996). Therefore,” for “Therefore,”

The next assay has as its system E. coli TG1/pYEAS. Put plainly: microbe, parasite or virus in culture. The conditions noted are these: for MIC: Escherichia coli, TG1/PYEAS, read-out: MIC (μg/ml) for E. coli TG1, harboring the plasmid pYEAS.
Text: as §1, with “The homology of the yeaS, yfiK, yahN and yggA gene products with the lysine transporter, LysE, of Corynebacterium glutamicum (Vrljic et al., Mol. Microbiol.,22, 815-826, 1996) and RhtB protein involved in homoserine excretion, indicates the analogues function for these proteins. It is well known that the increased expression of the genes involved in antibiotic and heavy metal efflux increases the level of resistance to the drugs (Nikaido, H. J. Bacteriology, 178, 5853-5859, 1996). Therefore,” for “Therefore,”

Setting [1] is: E. coli TG1 harboring pUC21 (control vector), M9 agar, doubling increments, read-out: MIC (μg/ml) for E. coli TG1, harboring the plasmid pUC21.

Values after ≈ are worked out from the molar mass of the structure shown. Read-outs that look alike come from different tables or passages of the source.

As to `CN(C)CC(N)C(=O)O` (racemic) [4-aza-DL-leucine], the MIC was 100 µg/mL in the assay with E. coli TG1/pUC21 (setting [1]); 100 µg/mL (≈ 0.757 mM) in the assay with E. coli TG1/pYAHN; 100 µg/mL (≈ 0.757 mM) in the assay with E. coli TG1/pYFIK; 100 µg/mL (≈ 0.757 mM) in the assay with E. coli TG1/pYGGA; 100 µg/mL (≈ 0.757 mM) in the assay on E. coli TG1/pYEAS.
In the case of `NCCSC[C@H](N)C(=O)O` [AEC, S-(2-aminoethyl)-L-cysteine], the MIC in the assay on E. coli TG1/pUC21 (setting [1]) was determined as 5 µg/mL; in the assay with E. coli TG1/pYAHN, 5 µg/mL (≈ 0.0304 mM); in the assay with E. coli TG1/pYFIK, 10 µg/mL (≈ 0.0609 mM); in the assay with E. coli TG1/pYGGA, 200 µg/mL (≈ 1.22 mM); in the assay with E. coli TG1/pYEAS, 5 µg/mL (≈ 0.0304 mM).
As to `CCC(O)C(N)C(=O)O` (stereo not drawn) [AHVA, α-amino-β-hydroxyvaleric-acid], the MIC in the assay on E. coli TG1/pUC21 (setting [1]) came to 100 µg/mL; with E. coli TG1/pYAHN, 100 µg/mL (≈ 0.751 mM); in the assay on E. coli TG1/pYFIK, 200 µg/mL (≈ 1.5 mM); with E. coli TG1/pYGGA it was 100 µg/mL (≈ 0.751 mM); with E. coli TG1/pYEAS, 100 µg/mL (≈ 0.751 mM).
Regarding `N=C(N)NCCC[C@H](N)C(=O)O` [L-arginine], the MIC turned out to be 10000 µg/mL with E. coli TG1/pUC21 (setting [1]); 10000 µg/mL (≈ 57.4 mM) with E. coli TG1/pYAHN; 10000 µg/mL (≈ 57.4 mM) in the assay on E. coli TG1/pYFIK; 20000 µg/mL (≈ 115 mM) with E. coli TG1/pYGGA; 10000 µg/mL (≈ 57.4 mM) with E. coli TG1/pYEAS.
As for `N[C@@H](CCC(=O)O)C(=O)[O-].[Na+]` [L-glutamate (Na salt)], the “MIC (μg/ml) for E. coli TG1, harboring the plasmid pUC21” value with E. coli TG1/pUC21 (E. coli TG1 harboring pUC21 (control vector), M9 agar, doubling increments) is given as 5000 μg/ml. In addition, in the assay on E. coli TG1/pYAHN (E. coli TG1 harboring pYAHN (multicopy yahN), M9 agar, doubling increments), the “MIC (μg/ml) for E. coli TG1, harboring the plasmid pYAHN” value was 5000 μg/ml. In the assay with E. coli TG1/pYFIK (E. coli TG1 harboring pYFIK (multicopy yfiK), M9 agar, doubling increments), the “MIC (μg/ml) for E. coli TG1, harboring the plasmid pYFIK” value is 10000 μg/ml. For the same compound, the “MIC (μg/ml) for E. coli TG1, harboring the plasmid pYGGA” value in the assay on E. coli TG1/pYGGA (E. coli TG1 harboring pYGGA (multicopy yggA), M9 agar, doubling increments) came to 5000 μg/ml. Besides, the “MIC (μg/ml) for E. coli TG1, harboring the plasmid pYEAS” value with E. coli TG1/pYEAS (E. coli TG1 harboring pYEAS (multicopy yeaS), M9 agar, doubling increments) is 20000 μg/ml.
With `N[C@@H](Cc1c[nH]cn1)C(=O)O` [L-histidine], the MIC was found to be 5000 µg/mL with E. coli TG1/pUC21 (setting [1]); 5000 µg/mL (≈ 32.2 mM) in the assay with E. coli TG1/pYAHN; 10000 µg/mL (≈ 64.5 mM) in the assay with E. coli TG1/pYFIK; 5000 µg/mL (≈ 32.2 mM) with E. coli TG1/pYGGA; 30000 µg/mL (≈ 193 mM) in the assay on E. coli TG1/pYEAS.
As to `N[C@@H](CCO)C(=O)O` [L-homoserine], the MIC is 500 µg/mL in the assay on E. coli TG1/pUC21 (setting [1]); 500 µg/mL (≈ 4.2 mM) in the assay with E. coli TG1/pYAHN; 1000 µg/mL (≈ 8.39 mM) with E. coli TG1/pYFIK; 500 µg/mL (≈ 4.2 mM) in the assay on E. coli TG1/pYGGA; 1000 µg/mL (≈ 8.39 mM) in the assay on E. coli TG1/pYEAS.
For the compound `NCCCC[C@H](N)C(=O)O` [L-lysine], the MIC in the assay on E. coli TG1/pUC21 (TG1/PUC21, read-out: MIC (μg/ml) for E. coli TG1, harboring the plasmid pUC21) is 5000 µg/mL; in the assay with E. coli TG1/pYAHN, 5000 µg/mL (≈ 34.2 mM); with E. coli TG1/pYFIK, 7500 µg/mL (≈ 51.3 mM); in the assay on E. coli TG1/pYGGA it was 15000 µg/mL (≈ 103 mM); in the assay with E. coli TG1/pYEAS it was 7500 µg/mL (≈ 51.3 mM).
As for `O=C(O)[C@@H]1CCCN1` [L-proline], the MIC with E. coli TG1/pUC21 (setting [1]) was 1000 µg/mL; in the assay on E. coli TG1/pYAHN it was 2000 µg/mL (≈ 17.4 mM); in the assay with E. coli TG1/pYFIK it was 5000 µg/mL (≈ 43.4 mM); in the assay with E. coli TG1/pYGGA it was 1000 µg/mL (≈ 8.69 mM); with E. coli TG1/pYEAS, 2000 µg/mL (≈ 17.4 mM).
In the case of `C[C@@H](O)[C@H](N)C(=O)O` [L-threonine], the MIC with E. coli TG1/pUC21 (setting [1]) came to 30000 µg/mL; in the assay on E. coli TG1/pYAHN, 30000 µg/mL (≈ 252 mM); in the assay on E. coli TG1/pYFIK it was 40000 µg/mL (≈ 336 mM); with E. coli TG1/pYGGA, 30000 µg/mL (≈ 252 mM); with E. coli TG1/pYEAS, 50000 µg/mL (≈ 420 mM).
For `CC(C)[C@H](N)C(=O)O` [L-valine], the MIC amounted to 0.5 µg/mL in the assay with E. coli TG1/pUC21 (setting [1]); 0.5 µg/mL (≈ 0.00427 mM) in the assay with E. coli TG1/pYAHN; 0.5 µg/mL (≈ 0.00427 mM) in the assay on E. coli TG1/pYFIK; 0.5 µg/mL (≈ 0.00427 mM) in the assay with E. coli TG1/pYGGA; 0.5 µg/mL (≈ 0.00427 mM) in the assay on E. coli TG1/pYEAS.
Turning to `CCC(N)C(=O)O` (stereo not drawn) [α-aminobutyric acid], the MIC was 2500 µg/mL in the assay with E. coli TG1/pUC21 (setting [1]); 2500 µg/mL (≈ 24.2 mM) with E. coli TG1/pYAHN; 5000 µg/mL (≈ 48.5 mM) in the assay on E. coli TG1/pYFIK; 2500 µg/mL (≈ 24.2 mM) in the assay on E. coli TG1/pYGGA; over 10000 µg/mL with E. coli TG1/pYEAS.
